Test results: patent US20140329782A1, “COMBINED THERAPEUTIC AGENT” (priority 2011, published 2014)

Experiments:
Crohn's disease = conditions: cited from earlier work
[1] = tested on: patients suffering from persistent asthma (GINA II); experiment: Use and efficacy study in patients with persistent asthma (GINA II); assay type: in vivo, human
Description: • In the context of a first set of investigations, 11 patients from 32 to 65 years of age suffering from persistent asthma (GINA II) were treated with a combination therapy composed of inhaled glucocorticoid (beclomethasone, 2×200 μg/which inhalational) and inhaled long-acting beta-2 sympathomimetics (LABA, salmeterol) and also, perorally, theophylline. After one week of therapy, it was possible to achieve mild improvement of pulmonary function in 5 of the 11 test subjects. […] In two of the treated patients, it was also possible to reduce the beta-2 agonist demand by 10%. A further group based on 9 patients from 39 to 70 years of age having an identical indication, i.e., persistent asthma (GINA II), who were similarly administered with the abovementioned combination therapy composed of inhaled glucocorticoid and inhaled long-acting beta-2 sympathomimetics and also theophylline additionally received vitamin D for one week in a daily dose of 80 μg. After one week of therapy with the aforementioned dose, it was possible to achieve a mild to moderate improvement in pulmonary function in 6 of the 9 test subjects. After continued long-term therapy for 12 weeks, the persistent bronchial asthma had stabilized insofar as it was possible to reduce the inhaled glucocorticoid need by up to 60% in 7 of the 9 patients and it was possible to even completely temporarily discontinue the inhaled glucocorticoids in 1 of the 9 patients. […] In 4 of the treated patients, it was also possible to reduce the beta-2 agonist need by up to 40%.

[2] = tested on: peripheral mononuclear cells isolated from the blood of the test subjects; conditions: 100 μg/ml calcitriol, cited from earlier work
[3] = in vivo; cited from earlier work
[4] = after long-term therapy for 12 weeks

For Cn1cnc([N+](=O)[O-])c1Sc1ncnc2nc[nH]c12 [azathioprine], the remission (Crohn's disease; maintaining remission) is given as 83%.

For CCCC1O[C@@H]2C[C@H]3[C@@H]4CCC5=CC(=O)C=C[C@]5(C)[C@H]4[C@@H](O)C[C@]3(C)[C@]2(C(=O)CO)O1 (some centres unmarked) [budesonide], the systemic adverse effects (Crohn's disease; 6 mg of budesonide) is listed as “frequent systemic adverse effects with cortisol suppression”.

For vitamin D, the “patients in whom inhaled glucocorticoids could be completely temporarily discontinued” value ([1]; after 12 weeks) was 1 of the 9, the “patients in whom the beta-2 agonist demand could be reduced” value ([1]; after 12 weeks) was 4 and the “patients in whom the inhaled glucocorticoid demand could be reduced” value ([1]; after 12 weeks) was 7 of the 9. For the same compound, the “reduction of the beta-2 agonist demand” value [1, 4] was “up to 40%”, the “reduction of the inhaled glucocorticoid demand” value [1, 4] was “up to 60%” and the “test subjects with improvement of pulmonary function” value ([1]; after one week of therapy) was 6 of the 9. For the same compound, the tolerability ([1]; vitamin D 80 μg daily added to the combination therapy) was “well tolerated with no adverse effects”.

For C=C1/C(=C\C=C2/CCC[C@]3(C)[C@@H]([C@H](C)CCCC(C)(C)O)CC[C@@H]23)C[C@@H](O)C[C@@H]1O [calcitriol, 1,25-dihydroxyvitamin D3], the “production of interferon gamma” value [2] is listed as “reduces”, the “production of interleukin 10” value [2] is listed as “stimulates” and the “inhibition of TNF-alpha production by patient group” value ([2]; Crohn's disease patients vs healthy) is listed as “only in cells from patients suffering from Crohn's disease and not in cells from healthy patients”. For the same compound, the “production of TNF-alpha in peripheral mononuclear cells” value ([2]; cells from patients suffering from inflammatory bowel diseases) was “could be lowered”.

In the case of C=C1CC[C@H](O)C/C1=C/C=C1\CCC[C@]2(C)[C@@H]([C@H](C)CCCC(C)(C)O)CC[C@@H]12 [calcifediol, 25-Hydroxyvitamin D3], the half life [3] is listed as “about 2.5 weeks”.
